# Values quoted from earlier work in US20010003742A1, “Antilipemic formulation” (priority 1998, published 2001).
# Details: gelatine itself
substance,measurement,value
gelatine,haemostatic effect,only displays a haemostatic effect after an addition of thrombin
